Laboratory results from patent US20150072416A1, “METABOLITE FOR IMPROVING PRODUCTION, MAINTENANCE AND PROLIFERATION OF PLURIPOTENT STEM CELLS, COMPOSITION COMPRISING THE SAME, AND METHOD OF CULTURING PLURIPOTENT STEM CELL USING THE SAME” (KOREA RESEARCH INSTITUTE OF BIOSCIENCE AND BIOTENOLOGY, priority 2012, published 2015).

What was measured:
Assay type in all cases: cell-based
[1] = tested on: H9 human embryonic stem cells; test: Mitochondrial membrane potential of human embryonic stem cells by JC-1 staining; details: 0.1 mM nicotinamide in mTeSR1
Method: In an example of the present invention, the membrane potential (ΔΨm) of mitochondria was measured after treatment with nicotinamide. When human embryonic stem cells were maintained and cultured, the membrane potential of mitochondria in the human embryonic stem cells was measured by JC-1 staining after addition of various concentrations of nicotinamide to mTeSR1. After JC-1 staining, activated mitochondria are stained with red, and non-activated mitochondria are stained with green. The ratio of the number of red-stained mitochondria to the number of green-stained mitochondria is measured, and an increase in the ratio indicates an increase in activated mitochondria.
In addition, the present inventors measured the membrane potential (ΔΨm) of mitochondria. When human embryonic stem cells were maintained and cultured, various concentrations of nicotinamide were added to mTeSR1, and then the mitochondrial membrane potential of the human embryonic stem cells was measured by JC-1 staining. After JC-1 staining, activated mitochondria are stained with red, and non-activated mitochondria are stained with green. The ratio of the number of red-stained mitochondria to the number of green-stained mitochondria is measured, and an increase in the ratio indicates an increase in the number of activated mitochondria.

[2] = tested on: human fibroblasts transfected with reprogramming factor OSKM; test: Mitochondrial membrane potential during reprogramming (JC-1, flow cytometry); details: 1 mM
Method: At different time points of reprogramming, the cells of a control group and a nicotinamide-treated group (Nam) were dissociated with single cells by trypsin, and then stained with JC-1 (5,5′,6,6′-tetraachloro-1,1′,3,3′-tetraethylbenzimidazolocarbocyanine iodide) solution at 37° C. for 15 minutes. After washing, the degree of fluorescence staining was measured by flow cytometry, relative mitochondrial membrane potential was quantified by the red/green ratio.

[3] = tested on: human embryonic stem cells and human induced pluripotent stem cells; test: Maintenance of undifferentiated state of pluripotent stem cells (morphology, AP staining); details: for undifferentiated state in UM: 0.1 mM nicotinamide added to UM
From the text: Human embryonic stem cells (hESC) H9 (NIH Code, WA09; WiCell Research Institute, Madison, Wis.) and H1 (NIH Code, WA01; WiCell Research Institute) and induced pluripotent stem cells (hiPSC) were each cultured with hESC culture medium (unconditioned medium; UM) or MEF-CM (conditioned medium) on γ-irradiated MEFs (mouse embryonic fibroblasts) or on plates coated with Matrigel (BD Biosciences, Franklin Lakes, N.J.). The cultured human embryonic stem cells and induced pluripotent stem cells were treated with collagenase IV (1 mg/ml; Invitrogen) or dispase (1 mg/ml; Invitrogen) once a week and subcultured. MEF-CM was prepared as γ-irradiated MEF according to a known method (Xu C. Nat Biotechnol 19, 971-974) and supplemented with 8 ng/ml of bFGF. UM contained 80% DMEM/F12, 20% knockout serum replacement (KSR, Invitrogen, Carlsbad, Calif.), 1% non-essential amino acids (NEAA, Invitrogen), 1 mM L-glutamine (Invitrogen), 0.1 mM β-mercaptoethanol (Sigma, St. Louis, Mo.) and 6 ng/ml bFGF (basic fibroblast growth factor, Invitrogen). Particularly, for culture in the absence of feeder cells and serum, human embryonic stem cells and human induced pluripotent stem cells were cultured in mTeSR1 medium (StemCell Technologies). Human newborn foreskin fibroblasts (hFF, ATCC, catalog number CRL-2097; American Type Culture Collection, Manassas, Va.) were cultured in a DMEM medium containing 10% FBS (fetal bovine serum, Invitrogen), 1% non-essential amino acids, 1 mM L-glutamine and 0.1 mM β-mercaptoethanol.
AP staining was performed using a commercial AP kit (Sigma) according to the manufacturer's instruction. Images of AP-positive cells were recorded with HP Scanjet G4010. Also, bight field images were obtained with an Olympus microscope (IX51, Olympus, Japan).
In order to verify the effect of nicotinamide on the maintenance of undifferentiated state of pluripotent stem cells, the present inventors performed the following experiment. While human embryonic stem cells and human pluripotent stem cells were cultured in MEF-CM or UM on feeder-free Matrigel, various NAD precursors including nicotinamide were added to the stem cells, and then the effects of the NAD precursors on the stem cells were verified by examining the morphological change and the expression pattern of AP that is a human embryonic stem cell-specific marker.
In addition, in order to examine the effects of nicotinamide at various concentrations, various concentrations of nicotinamide were added to UM, and the degrees of maintenance of undifferentiation of human embryonic stem cells and human induced pluripotent stem cells, which are pluripotent stem cells, were examined. […] However, it was shown that the addition of a low concentration (<0.01 mM) or high concentration (>5 mM) of nicotinamide could not maintain the undifferentiated state of pluripotent stem cells (FIG. 30).
The effect of nicotinamide effective for maintaining the undifferentiated state of human embryonic stem cells and human induced pluripotent stem cells, which are pluripotent stem cells, was verified under various conditions. […] In order to eliminate the use of feeder cell-derived factors and animal serum and ensure culture conditions including a medium (CDM) whose components are known, various concentrations of nicotinamide were added to mTeSR1 (CDM) without feeder cells, and the effects thereof were examined. As a result, it could be seen that the addition of 0.1 mM of nicotinamide was effective for maintaining the undifferentiated state of various human embryonic stem cell lines (H1 and H9) and the human induced pluripotent stem cell line (hiPS) (FIG. 31).

NC(=O)c1cccnc1 [nicotinamide]
number of activated mitochondria / mitochondrial membrane potential (JC-1 red/green) [1]: significantly increased
membrane potential of mitochondria in reprogramming conditions [2]: the membrane potential was maintained
number of AP-positive cells when feeder cells were used ([3]; 0.1 mM): most increased
undifferentiated state in UM [3]: maintained in an undifferentiated state
undifferentiated state in UM ([3]; listed as Nam): most effectively maintained
maintaining the undifferentiated state in mTeSR1 (CDM) without feeder cells ([3]; 0.1 mM, H1, H9 and hiPS): effective
induction of differentiation in UM, among NAD+ precursors and NAD+ ([3]; H9 in UM treated with nicotinamide (FIG. 29)): most effectively inhibited
high concentration that could not maintain the undifferentiated state ([3]; UM): > 5 mM
low concentration that could not maintain the undifferentiated state ([3]; UM): < 0.01 mM
morphology of hESCs cultured in UM, in comparison with other NAD precursors ([3]; UM containing nicotinamide (1 mM), 6 days, feeder-free Matrigel): showed the morphology of undifferentiated human embryonic stem cells
nicotinamide concentration in UM conserving undifferentiated morphology and positive AP expression ([3]; hESCs and hiPSCs cultured in UM): 0.1-1 mM
